According to patent US20150150843A1, “CARDIOPROTECTIVE COMPOUNDS, THEIR USE WITH CHEMOTHERAPY, AND METHODS FOR IDENTIFYING THEM” (priority 2012, published 2015):
Marks after values point to notes of the source that are not given here. Each block holds one compound with its values, some of them ahead of it.

Tests used:
tumor line LNCaP = assay: Doxorubicin-induced apoptosis in tumor line LNCaP; type: cell-based, human
Procedure: (§1) Cardiomyocyte line HL-1 was derived from mouse atrium tumor. Culturing conditions were previously published (Claycomb et al., Proc. Natl. Acad. Sci. USA, 95, 2979, 1998). HL 1 was cultured with Claycomb medium (Sigma) supplemented with fetal bovine serum (FBS), penicillin/streptomycin, L-glutamine and norepinephrine. DU145 and LNCaP are human prostate tumor lines, while MCF7 is a human breast cancer line. DU145 and MCF7 were cultured with high glucose DMEM (Life Sciences) supplemented with penicillin/streptomycin and L-glutamine, and LNCaP was grown in RPMI-1640 (Life Sciences) plus penicillin/streptomycin and L-glutamine. […] Apoptosis indices were quantified as percentage of AnnexinV positive cells. All experiments were done at least three times, and the statistics were obtained by Student T-test.

[1] = system: neonatal rat cardiomyoyte; assay: Doxorubicin-induced apoptosis in neonatal rat cardiomyocyte; type: cell-based
[2] = system: caspases 3, 8 and 9 in cardiomyocyte; assay: Caspase 3, 8 and 9 activity (fluorogenic substrates) in cardiomyocyte; type: cell-based
Procedure: We also examined effects of the compounds on apoptosis (via TUNEL staining) in cardiomyocytes and tumor cells.
Specific activity of caspases 3, 8 and 9 were assessed semi-quantitatively using the corresponding fluorogenic substrates following manufacturer's protocols (R&D Systems). All experiments were done at least three times, and the statistics were obtained by Student T-test.

tumor line MCF7 = assay: Doxorubicin-induced apoptosis in tumor line MCF7; type: cell-based, human
Procedure: as §1

zebrafish heart = assay: Doxorubicin-induced heart failure model in zebrafish (heart contraction, tail circulation, morphology, fractional shortening); type: in vivo
Procedure: For screening, about 400 nl of small molecule stock solution was transferred from 96-well format library plates to fish plate with transfer pins. At dpf 3, treated fish were screened under inverted fluorescent microscope (100×) for heart contraction and tail circulation.
Zebrafish have been used successfully for high-throughput screening (HTS) to identify chemical compounds that suppress genetic defects and other disease states (Peterson et al., Methods Cell. Biol. 105, 525-541, 2011). Compared to cell-based in vitro systems, in vivo screening offers several advantages, including the ability to discover compounds with therapeutic activity even without knowing their molecular targets. In addition, compounds discovered by in vivo screening are selected for their ability to be effective in the complex context of the disease of interest. […] Heart contraction was dramatically compromised, resulting in the absence of blood cell circulation within tail blood vessels. Using a high-speed camera and a custom analysis algorithm, we were able to calculate the fractional shortening of the zebrafish hearts. […] Therefore, the zebrafish model appears to recapitulate several key aspects of the doxorubicin-induced heart failure seen in humans, including increased apoptosis and reduced contractility. Because the doxorubicin-induced changes in cardiac function and blood circulation are easily detected visually, they formed the basis of an assay to identify small molecules suppressing doxorubicin-induced cardiotoxicity.
Hearts were surgically removed and briefly fixed with 4% paraformaldehyde (PFA) for 20 minutes at room temperature. The fixed heart samples were embedded in mounting medium and flattened with slide and coverslip. Confocal images were captured from the flattened hearts, and red nuclei were counted. All experiments were done at least three times, and the statistics were obtained by Student T-test.
In order to confirm and quantify the activity of compounds with cardioprotective properties identified in the preceding assays, a high-resolution assay of cardiac function, described by Shin et al. (Physiol Genomics. 2010 July; 42(2): 300-309), can be used to measure heart fractional shortening.

tumor line DU145 = assay: Doxorubicin-induced apoptosis in tumor line DU145; type: cell-based, human
Procedure: as §1

[3] = system: prostate tumor cell DU145; assay: CellTiter Glo viability of doxorubicin-treated DU145; type: cell-based, human; details: VIS and DPU at 20 μM
Procedure: (§2) Cardiomyocyte line HL-1 was derived from mouse atrium tumor. Culturing conditions were previously published (Claycomb et al., Proc. Natl. Acad. Sci. USA, 95, 2979, 1998). HL 1 was cultured with Claycomb medium (Sigma) supplemented with fetal bovine serum (FBS), penicillin/streptomycin, L-glutamine and norepinephrine. DU145 and LNCaP are human prostate tumor lines, while MCF7 is a human breast cancer line. DU145 and MCF7 were cultured with high glucose DMEM (Life Sciences) supplemented with penicillin/streptomycin and L-glutamine, and LNCaP was grown in RPMI-1640 (Life Sciences) plus penicillin/streptomycin and L-glutamine. […] All experiments were done at least three times, and the statistics were obtained by Student T-test.

[4] = system: JNK phosphorylation in DU145 cells; assay: JNK phosphorylation western blot in DU145 cells; type: cell-based, human
Text: (§3) In an effort to identify pathways involved in VIS and DPU mediated cardioprotection, we screened a panel of kinases by western blotting. […] To confirm the cardiomyocyte-specific inhibition of JNK signaling, we used a luciferase-based AP1 reporter assay to detect JNK activation in HL 1 and DU145 cells.

cardiomyocyte HL1 = assay: CellTiter Glo viability of doxorubicin-treated HL1; type: cell-based, mouse; details: VIS and DPU at 20 μM
Procedure: as §2

mouse heart function [5] = assay: Chronic low-dose doxorubicin treatment in mice, echocardiography; type: in vivo; details: low doses of doxorubicin 5 times over 5 weeks
Text: Labels: DMSO: DMSO-treated control samples; Dox: doxorubicin-treated samples; Dox+VIS: doxorubicin and VIS co-treated samples; Dox+DPU: doxorubicin and DPU co-treated samples.

mouse heart function [6] = assay: Acute doxorubicin-induced HF model in mice, echocardiography; type: in vivo; details: five days
Procedure: Five days after the initial injection, we assessed heart function by M mode echocardiogram.
Strain C57BL/6 male mice between 8-10 weeks of age were purchased from Charles River Laboratories. […] In the control group, plain vehicle and saline were injected instead. Five days later, injected mice were subjected to echocardiography. Five days after treatment, transthoracic echocardiographic images were obtained and interpreted by an echocardiographer blinded to the experimental design using a 13.0-MHz linear probe (Vivid 7; GE Medical System, Milwaukee, Wis.) as described (Zou et al., Crit. Care Med. 38, 1335-1342, 2010; Neilan et al., Eur. Heart J. 27, 1868-1875, 2006). Mice were lightly anesthetized with ketamine (20 mg/kg). M-mode images were obtained from a parasternal short-axis view at the midventricular level with a clear view of papillary muscle. Tissue Doppler imaging was collected at a frame rate of 483 frames per second and a depth of 1 em. LV end-diastolic internal diameter (LVIDd) and LV end systolic internal diameter (LVIDS) were measured. Fractional shortening (FS) was defined as [(LVIDd−LVIDS)/LVIDd]. Strain rate of the posterior wall was analyzed offline in an EchoPAC workstation (GE Healthcare, Wauwatosa, Wis.). A region of interest (axial distance, 0.2 mm; width, 0.6 mm) was manually positioned in the middle of the posterior wall. A strain length of 0.5 mm was used. Peak systolic strain rate was measured. The temporal smoothing filters were turned off for all measurements. The values of three consecutive cardiac cycles were averaged.

cardiomyoyte HL1 = assay: AnnexinV apoptosis assay in cardiomyocyte HL1; type: cell-based, mouse
Procedure: as §1

[7] = system: JNK responsive reporter AP-1 in DU145 cells; assay: AP-1 luciferase reporter assay in DU145 cells; type: cell-based, human; details: doxorubicin-treated
Text: as §3

zebrafish cardiomyocytes = assay: TUNEL staining of apoptotic cardiomyocytes in doxorubicin-treated zebrafish; type: in vivo
Procedure: Because cardiomyocyte apoptosis plays a critical role in mediating doxorubicin-induced cardiomyopathy, we sought to determine if VIS Aand DPU attenuate heart failure by inhibiting cardiomyocyte apoptosis.
Hearts were surgically removed and fixed with 4% paraformaldehyde (PFA) for 20 minutes at room temperature. After staining with an in situ TUNEL kit (Roche), heart samples were embedded in mounting medium and flattened with slide and coverslip, and then subjected to confocal microscopy. The data were quantified as percentage of TUNEL positive cardiomyocytes. All experiments were done at least three times, and the statistics were obtained by Student T-test.

[8] = system: JNK responsive reporter AP-1 in HL 1 cells; assay: AP-1 luciferase reporter assay in HL 1 cells; type: cell-based, mouse; details: doxorubicin-treated
Text: as §3

[9] = system: JNK phosphorylation in HL 1 cells; assay: JNK phosphorylation western blot in HL 1 cells; type: cell-based, mouse
Text: as §3
Blots were quantified by densitometry with Image J. All experiments were done at least three times, and the statistics were obtained by Student T-test.

mouse cardiac sections = assay: TUNEL apoptosis assay in hearts of doxorubicin-treated mice; type: in vivo; details: one day
Procedure: To determine if the ability of VIS and DPU to protect cardiomyocytes from apoptosis was conserved in mammals, we treated mice with doxorubicin with or without co-treatment with VIS or DPU. One day later, hearts were collected for apoptosis assays using TUNEL (Supplement FIG. 1b). […] Therefore, VIS and DPU appear to prevent doxorubicin-induced cardiac apoptosis in both zebrafish and mice.
One day after injection, hearts were collected and fixed with 4% PFA at 4° C. overnight and then were subjected to paraffin embedding and sectioning. The heart sections were stained using the TMR TUNEL kit (Roche) following the manufacturer's protocol. The stained sections were scanned with MetaMorph-assisted slide scanning microscopy, and apoptosis indices were quantified as TUNEL positive cell/mm^2. All experiments were done at least three times, and the statistics were obtained by Student T-test.

[10] = patients; cited from earlier work
[11] = zebrafish treated with doxorubicin
[12] = mice, 15 mg/kg doxorubicin IP, with or without 25 mg/kg VIS IP, mean ± SEM

activity of caspases 3, 8 and 9 activated by doxorubicin [2]: inhibited
SMILES: COc1c2ccoc2cc2oc(C)cc(=O)c12 [VIS, visnagin]
doxorubicin-induced apoptosis (tumor line LNCaP): do not reduce doxorubicin-induced apoptosis | doxorubicin-induced apoptosis, AnnexinV staining [1]: inhibit doxorubicin-induced apoptosis | doxorubicin-induced apoptosis, TUNEL staining [1]: inhibit doxorubicin-induced apoptosis | doxorubicin-induced apoptosis (tumor line MCF7): do not reduce doxorubicin-induced apoptosis | cardiac contractility as measured by fractional shortening (zebrafish heart; [11]): completely rescued cardiac contractility | overt morphological effects of doxorubicin on the heart (ventricular compaction, pericardial edema) (zebrafish heart; [11]): prevented the overt morphological effects of doxorubicin on the heart | doxorubicin-induced apoptosis (tumor line DU145): do not reduce doxorubicin-induced apoptosis | viability of doxorubicin-treated prostate tumor cell DU145 [3]: do not increase viability | doxorubicin-induced JNK phosphorylation [4]: do not inhibit doxorubicin-induced JNK phosphorylation | viability of doxorubicin-treated cardiomyocyte HL1 (cardiomyocyte HL1): increase viability | doxorubicin-induced reduction of fractional shortening (mouse heart function [5]): partially reversed the reduction | doxorubicin-induced reduction of strain rate (mouse heart function [5]): partially reversed the reduction | fractional shortening and strain rate compared to mice treated with doxorubicin alone (mouse heart function [6]; 25 mg/kg VIS immediately prior to 15 mg/kg doxorubicin IP): significant improvement | doxorubicin-induced apoptosis, AnnexinV staining (cardiomyoyte HL1): reduce doxorubicin-induced apoptosis | AP-1 luciferase activity [7]: not repressed | number of apoptotic cardiomyocytes induced by doxorubicin (TUNEL) (zebrafish cardiomyocytes; 100 μM doxorubicin plus 20 μM rescue compound, two days): greatly reduced the number of apoptotic cardiomyocytes | AP-1 luciferase activity [8]: repressed | doxorubicin-induced JNK phosphorylation [9]: inhibit doxorubicin-induced JNK phosphorylation | doxorubicin-induced apoptosis in mouse heart (TUNEL) (mouse cardiac sections; 15 mg/kg doxorubicin plus 25 mg/kg visnagin or 10 mg/kg diphenylurea IP): significantly decreased doxorubicin-induced apoptosis

atrium and ventricle cardiomyocyte numbers compared to controls (zebrafish heart; 100 μM doxorubicin for two days, cmlc2-dsRed line): significantly reduced | pericardial edema (zebrafish heart; 100 μM doxorubicin from 1 dpf, two days exposure): extensive pericardial edema
SMILES: COc1cccc2c1C(=O)c1c(O)c3c(c(O)c1C2=O)C[C@@](O)(C(=O)CO)C[C@@H]3O[C@H]1C[C@H](N)[C@H](O)[C@H](C)O1 [doxorubicin]
heart rate and contractility (zebrafish heart; 100 μM doxorubicin from 1 dpf, assessed at 3 dpf): dramatically reduced | cumulative dosages that exponentially increase the risk of heart failure [10]: above 450 mg/m^2 | FS (mouse heart function [6]; [12]): 44 ± 2 % | HR (mouse heart function [6]; [12]): 609 ± 23 beats/min | LVIDs (mouse heart function [6]; [12]): 1.78 ± 0.10 mm | Strain Rate (mouse heart function [6]; [12]): 16 ± 1*** 1/sec | increase in apoptotic cardiomyocytes (TUNEL) (zebrafish cardiomyocytes; doxorubicin 100 μM, 4 dpf zebrafish): four-fold increase | increase in apoptosis in mouse cardiac sections (TUNEL) (mouse cardiac sections; 15 mg/kg doxorubicin IP): 3- to 4 fold
